In ChEMBL document CHEMBL1155067, “Carbonic anhydrase inhibitors: thioxolone versus sulfonamides for obtaining isozyme-selective inhibitors?” (Bioorg Med Chem Lett, 2008):

What was measured:
[1] = target: Carbonic anhydrase 6 (Homo sapiens) (UniProt P23280)
Description: Inhibition of human recombinant carbonic anhydrase 6 by stopped flow CO2 hydration method

[2] = target: Carbonic anhydrase 1 (Homo sapiens) (UniProt P00915)
[3] = target: Carbonic anhydrase 14 (Homo sapiens) (UniProt Q9ULX7)
Description: Inhibition of human recombinant carbonic anhydrase 14 by stopped flow CO2 hydration method

[4] = target: Carbonic anhydrase 9 (Homo sapiens) (UniProt Q16790)
Description: Inhibition of human recombinant carbonic anhydrase 9 catalytic domain by stopped flow CO2 hydration method

[5] = target: Carbonic anhydrase 12 (Homo sapiens) (UniProt O43570)
Chain of Carbonic anhydrase 12 (Homo sapiens) (O43570 whole entry): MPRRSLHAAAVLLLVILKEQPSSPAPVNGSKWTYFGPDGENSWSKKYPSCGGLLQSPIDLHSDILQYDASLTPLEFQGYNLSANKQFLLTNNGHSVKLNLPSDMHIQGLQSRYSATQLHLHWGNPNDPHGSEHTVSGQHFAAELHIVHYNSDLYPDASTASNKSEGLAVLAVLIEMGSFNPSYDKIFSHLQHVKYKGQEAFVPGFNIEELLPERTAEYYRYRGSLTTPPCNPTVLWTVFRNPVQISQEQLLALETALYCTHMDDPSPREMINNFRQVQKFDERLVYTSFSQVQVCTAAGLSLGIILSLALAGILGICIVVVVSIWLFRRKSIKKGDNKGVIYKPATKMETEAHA
Description: Inhibition of human recombinant carbonic anhydrase 12 catalytic domain by stopped flow CO2 hydration method

[6] = target: Carbonic anhydrase 5A, mitochondrial (Homo sapiens) (UniProt P35218)
Chain of Carbonic anhydrase 5A, mitochondrial (Homo sapiens) (P35218 whole entry): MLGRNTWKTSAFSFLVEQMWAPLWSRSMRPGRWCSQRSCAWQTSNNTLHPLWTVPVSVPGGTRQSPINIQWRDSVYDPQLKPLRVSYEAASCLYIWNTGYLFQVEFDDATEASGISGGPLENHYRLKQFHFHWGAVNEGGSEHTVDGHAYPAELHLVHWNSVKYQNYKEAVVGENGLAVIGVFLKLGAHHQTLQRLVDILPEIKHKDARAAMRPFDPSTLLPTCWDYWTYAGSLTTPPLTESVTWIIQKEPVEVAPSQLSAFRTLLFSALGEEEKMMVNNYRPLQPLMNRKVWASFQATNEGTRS
Description: Inhibition of human recombinant carbonic anhydrase 5A by stopped flow CO2 hydration method

[7] = target: T1, Carbonic anhydrase 15 (Mus musculus) (UniProt Q99N23); experiment: Inhibition of mouse recombinant carbonic anhydrase 15 by stopped flow CO2 hydration method
T1 sequence (whole entry): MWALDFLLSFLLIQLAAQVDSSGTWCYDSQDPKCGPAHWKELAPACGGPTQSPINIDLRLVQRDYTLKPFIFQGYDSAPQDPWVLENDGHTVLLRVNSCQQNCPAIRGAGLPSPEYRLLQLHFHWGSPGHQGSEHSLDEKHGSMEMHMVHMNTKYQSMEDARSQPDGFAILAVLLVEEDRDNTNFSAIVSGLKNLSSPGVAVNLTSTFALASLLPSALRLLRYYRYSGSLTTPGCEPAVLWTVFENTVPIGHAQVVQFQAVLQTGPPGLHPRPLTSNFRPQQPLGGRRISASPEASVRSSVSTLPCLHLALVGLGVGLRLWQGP

[8] = target: Carbonic anhydrase 7 (Homo sapiens) (UniProt P43166)
Chain of Carbonic anhydrase 7 (Homo sapiens) (P43166 whole entry): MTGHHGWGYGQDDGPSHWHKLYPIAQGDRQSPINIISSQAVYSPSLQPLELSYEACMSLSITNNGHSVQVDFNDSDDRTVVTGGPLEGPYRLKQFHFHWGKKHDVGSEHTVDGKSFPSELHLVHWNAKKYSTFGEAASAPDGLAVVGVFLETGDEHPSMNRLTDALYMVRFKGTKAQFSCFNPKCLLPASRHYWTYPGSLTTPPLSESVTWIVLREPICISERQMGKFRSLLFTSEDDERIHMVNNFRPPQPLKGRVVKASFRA

[9] = target: Carbonic anhydrase 4 (Homo sapiens) (UniProt P22748)
Chain of Carbonic anhydrase 4 (Homo sapiens) (P22748 whole entry): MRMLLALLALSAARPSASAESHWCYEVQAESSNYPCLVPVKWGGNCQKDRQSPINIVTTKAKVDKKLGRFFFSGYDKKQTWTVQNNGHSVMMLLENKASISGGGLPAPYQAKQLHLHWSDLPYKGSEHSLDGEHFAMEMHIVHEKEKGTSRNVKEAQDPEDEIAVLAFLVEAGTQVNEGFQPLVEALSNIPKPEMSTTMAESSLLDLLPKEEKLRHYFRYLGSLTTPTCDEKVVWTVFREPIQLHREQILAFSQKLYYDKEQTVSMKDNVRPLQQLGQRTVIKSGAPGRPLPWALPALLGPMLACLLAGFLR
Description: Inhibition of human recombinant carbonic anhydrase 4 by stopped flow CO2 hydration method

[10] = target: Carbonic anhydrase 13 (Mus musculus) (UniProt Q9D6N1); experiment: Inhibition of mouse recombinant carbonic anhydrase 13 by stopped flow CO2 hydration method
Chain of Carbonic anhydrase 13 (Mus musculus) (Q9D6N1 whole entry, looked up): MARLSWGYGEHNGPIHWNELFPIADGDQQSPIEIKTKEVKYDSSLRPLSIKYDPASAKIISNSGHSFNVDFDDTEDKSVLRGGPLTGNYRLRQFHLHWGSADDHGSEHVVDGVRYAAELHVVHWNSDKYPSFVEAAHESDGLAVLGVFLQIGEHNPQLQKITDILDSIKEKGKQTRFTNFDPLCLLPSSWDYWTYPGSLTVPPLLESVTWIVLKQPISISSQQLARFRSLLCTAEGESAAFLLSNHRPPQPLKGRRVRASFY

[11] = target: Carbonic anhydrase 3 (Homo sapiens) (UniProt P07451)
Chain of Carbonic anhydrase 3 (Homo sapiens) (P07451 whole entry): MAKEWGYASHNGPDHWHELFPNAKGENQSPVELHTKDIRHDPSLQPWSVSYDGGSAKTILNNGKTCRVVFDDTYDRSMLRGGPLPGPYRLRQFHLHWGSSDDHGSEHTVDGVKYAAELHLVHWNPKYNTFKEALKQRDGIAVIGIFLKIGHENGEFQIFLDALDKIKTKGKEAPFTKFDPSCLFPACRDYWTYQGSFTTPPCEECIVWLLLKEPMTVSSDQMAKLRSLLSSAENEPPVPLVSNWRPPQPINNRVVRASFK
Description: Inhibition of human recombinant carbonic anhydrase 3 by stopped flow CO2 hydration method

Carbonic anhydrase 2 [12] = target: T2, Carbonic anhydrase 2 (Homo sapiens, UniProt P00918)
[13] = target: Carbonic anhydrase 5B, mitochondrial (Homo sapiens) (UniProt Q9Y2D0)
Chain of Carbonic anhydrase 5B, mitochondrial (Homo sapiens) (Q9Y2D0 whole entry): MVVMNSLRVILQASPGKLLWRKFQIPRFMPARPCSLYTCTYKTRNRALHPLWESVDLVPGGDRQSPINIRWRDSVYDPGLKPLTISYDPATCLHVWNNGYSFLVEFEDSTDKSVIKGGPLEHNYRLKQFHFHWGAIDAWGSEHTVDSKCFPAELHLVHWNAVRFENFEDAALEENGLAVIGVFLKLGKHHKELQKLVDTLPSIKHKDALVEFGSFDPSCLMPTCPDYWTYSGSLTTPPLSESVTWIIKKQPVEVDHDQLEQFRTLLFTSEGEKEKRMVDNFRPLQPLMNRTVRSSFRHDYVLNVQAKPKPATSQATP
Description: Inhibition of human recombinant carbonic anhydrase 5B by stopped flow CO2 hydration method

Carbonic anhydrase 2 [14] = target: T2, Carbonic anhydrase 2; experiment: Inhibition of human recombinant carbonic anhydrase 2 by oxygen-18 isotope exchange assay
Carbonic anhydrase 2 [15] = target: T2, Carbonic anhydrase 2; experiment: Inhibition of human recombinant carbonic anhydrase 2 assessed as activity of carbonic anhydrase 2 esterase activity against 4-nitrophenyl acetate

Chain of Carbonic anhydrase 1 (Homo sapiens) (P00915 2-261 limits assumed): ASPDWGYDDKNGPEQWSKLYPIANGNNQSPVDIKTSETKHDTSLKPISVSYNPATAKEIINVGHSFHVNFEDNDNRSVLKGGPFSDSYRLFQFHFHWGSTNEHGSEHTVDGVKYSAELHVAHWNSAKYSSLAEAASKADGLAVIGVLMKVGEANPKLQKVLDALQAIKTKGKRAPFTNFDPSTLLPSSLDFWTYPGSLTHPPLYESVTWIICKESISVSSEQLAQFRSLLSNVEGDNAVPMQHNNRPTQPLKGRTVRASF
Chain of Carbonic anhydrase 6 (Homo sapiens) (P23280 whole entry): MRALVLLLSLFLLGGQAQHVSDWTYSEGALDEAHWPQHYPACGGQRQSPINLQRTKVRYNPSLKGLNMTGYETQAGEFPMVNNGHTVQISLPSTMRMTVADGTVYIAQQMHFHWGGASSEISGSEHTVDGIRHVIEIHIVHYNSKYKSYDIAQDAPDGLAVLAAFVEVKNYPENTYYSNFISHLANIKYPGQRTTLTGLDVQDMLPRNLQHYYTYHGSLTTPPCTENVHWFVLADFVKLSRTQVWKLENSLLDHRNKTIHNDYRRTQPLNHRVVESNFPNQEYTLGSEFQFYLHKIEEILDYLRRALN
Chain of Carbonic anhydrase 14 (Homo sapiens) (Q9ULX7 whole entry): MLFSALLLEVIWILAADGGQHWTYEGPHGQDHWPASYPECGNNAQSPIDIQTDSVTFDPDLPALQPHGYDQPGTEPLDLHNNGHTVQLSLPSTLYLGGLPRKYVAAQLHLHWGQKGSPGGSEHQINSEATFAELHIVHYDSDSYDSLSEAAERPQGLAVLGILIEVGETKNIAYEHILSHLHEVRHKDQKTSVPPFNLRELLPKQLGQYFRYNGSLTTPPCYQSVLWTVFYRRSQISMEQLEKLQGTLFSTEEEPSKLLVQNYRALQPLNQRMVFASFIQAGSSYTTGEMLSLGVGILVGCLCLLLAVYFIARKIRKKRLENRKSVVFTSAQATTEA

Row | Kinact [1] [µM] | Kinact [2] [µM] | Kinact [3] [µM] | Kinact [4] [µM] | Kinact [5] [µM] | Ki [6] [nM] | Ki [7] [nM] | Kinact [8] [µM] | Kinact [9] [µM] | Kinact [10] [µM] | Kinact [11] [µM] | Kinact (Carbonic anhydrase 2 [12]) [µM] | Kinact [13] [µM] | Kinact (Carbonic anhydrase 2 [14]) [µM] | IC50 (Carbonic anhydrase 2 [15]) [nM] | SMILES
1 | 6.17 | 7.5 | 8.12 | 0.081 | 0.076 | 620 | 780 | 0.072 | 0.072 | 6.53 | 78.6 | 0.058 | 0.61 | – | – | NS(=O)(=O)c1cc(Cl)c(O)c(Cl)c1
2 | 4.93 | 0.091 | 8.59 | 6.67 | 7.79 | 7060 | 7870 | 5.73 | 8.41 | 8.23 | 6.56 | 6.82 | 9.04 | 314 | 1770 | O=c1oc2cc(O)ccc2s1 [TIOXOLONE]
